Source: patent US9694016B2 (Novartis AG, priority 2013, dated 2017)
Read-outs that look alike come from different tables or passages of the source.

Molecular target: b-Raf (V600E) (Homo sapiens (Human), UniProt P15056, V600E)
Conditions: read-out: b-Raf IC-50, AlphaScreen
[1] = 60 min pre-incubation, reaction 3 hours at room temperature
[2] = 60 min pre-incubation, 3 hours reaction

Sequence of b-Raf (V600E) (P15056 whole entry V600E): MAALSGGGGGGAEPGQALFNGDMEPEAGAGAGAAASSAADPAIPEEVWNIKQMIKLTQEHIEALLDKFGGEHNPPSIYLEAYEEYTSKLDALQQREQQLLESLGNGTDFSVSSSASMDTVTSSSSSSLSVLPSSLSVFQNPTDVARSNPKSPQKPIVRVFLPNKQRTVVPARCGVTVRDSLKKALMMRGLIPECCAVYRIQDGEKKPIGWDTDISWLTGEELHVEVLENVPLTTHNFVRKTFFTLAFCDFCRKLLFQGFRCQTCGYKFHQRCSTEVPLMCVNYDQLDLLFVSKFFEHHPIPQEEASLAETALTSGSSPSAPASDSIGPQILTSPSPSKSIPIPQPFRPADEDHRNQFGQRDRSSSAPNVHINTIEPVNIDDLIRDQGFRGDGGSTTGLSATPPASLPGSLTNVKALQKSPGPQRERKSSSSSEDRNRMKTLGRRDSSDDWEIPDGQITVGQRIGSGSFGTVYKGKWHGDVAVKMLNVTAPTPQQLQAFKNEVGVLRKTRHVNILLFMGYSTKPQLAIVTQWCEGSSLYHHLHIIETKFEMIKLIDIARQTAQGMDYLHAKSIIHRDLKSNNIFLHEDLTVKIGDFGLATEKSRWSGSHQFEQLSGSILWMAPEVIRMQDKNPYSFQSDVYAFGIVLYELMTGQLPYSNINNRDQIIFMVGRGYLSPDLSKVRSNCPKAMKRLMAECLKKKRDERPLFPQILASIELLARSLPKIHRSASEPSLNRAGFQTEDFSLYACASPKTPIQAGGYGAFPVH

IC50 [1]	IC50 [2]	SMILES	further results
1.6 nM		Cc1ccc(NC(=O)c2ccnc(C(C)(C)O)c2)cc1-c1cc(OC2CCOCC2)nc(N2CCOCC2)c1 [Example 1150, 2-(2-hydroxypropan-2-yl)-N-(4-methyl-3-(2-morpholino-6-((tetrahydro-2H-pyran-4-yl)oxy)pyridin-4-yl)phenyl)isonicotinamide]	
13.4 nM		Cc1ncc(NC(=O)c2cnnc(C(F)(F)F)c2)cc1-c1cc(N2CCOCC2)nc(N2CC(C)(O)C2)c1 [Example 1107, N-(2′-(3-hydroxy-3-methylazetidin-1-yl)-2-methyl-6′-morpholino-[3,4′-bipyridin]-5-yl)-6-(trifluoromethyl)pyridazine-4-carboxamide]	
5.04 nM		Cc1ncc(NC(=O)c2ccnc(C(F)F)c2)cc1-c1cc(NCCO)nc(N2CCOCC2)c1 [Example 1039, 2-(difluoromethyl)-N-(2′-((2-hydroxyethyl)amino)-2-methyl-6′-morpholino-[3,4′-bipyridin]-5-yl)isonicotinamide]	
682 nM		Cc1ccc(NC(=O)c2cnncc2C(F)F)cc1-c1cc(N2CCOCC2)nc(N2CC(O)C2)c1 [Example 1075, 5-(difluoromethyl)-N-(3-(2-(3-hydroxyazetidin-1-yl)-6-morpholinopyridin-4-yl)-4-methylphenyl)pyridazine-4-carboxamide]	
68.4 nM		Cc1ncc(NC(=O)c2ccnc(C(C)(C)O)c2)cc1-c1cc(NCCO)nc(N2CCOCC2)c1 [Example 1046, N-(2′-((2-hydroxyethyl)amino)-2-methyl-6′-morpholino-[3,4′-bipyridin]-5-yl)-2-(2-hydroxypropan-2-yl)isonicotinamide]	
15.4 nM		Cc1ncc(NC(=O)c2cnnc(C(C)(C)C#N)c2)cc1-c1cnc(OCC(F)F)c(N2CCOCC2)c1 [Example 962, 6-(2-cyanopropan-2-yl)-N-(6′-(2,2-difluoroethoxy)-2-methyl-5′-morpholino-[3,3′-bipyridin]-5-yl)pyridazine-4-carboxamide]	

The next lines start with the compound.

SMILES	IC50 [1]	IC50 [2]	further results
Cc1ncc(NC(=O)c2cccc(C(F)(F)F)c2)cc1-c1nc2c(c(N3CCOCC3)n1)CS(=O)(=O)C2 [Example 886, N-(6-methyl-5-(4-morpholino-6,6-dioxido-5,7-dihydrothieno[3,4-d]pyrimidin-2-yl)pyridin-3-yl)-3-(trifluoromethyl)benzamide]	7.6 nM		
CCOc1ncc(-c2cc(NC(=O)c3cccc(C(F)(F)F)c3)cnc2C)nc1N1CCOCC1 [Example 539, N-(5-(5-ethoxy-6-morpholinopyrazin-2-yl)-6-methylpyridin-3-yl)-3-(trifluoromethyl)benzamide]		2.8 nM	
CCNc1nc(-c2cc(NC(=O)c3cc(C(F)(F)F)c(=O)n(CC)c3)cnc2C)cc(N2CCOCC2)n1 [Example 720, 1-ethyl-N-(5-(2-(ethylamino)-6-morpholinopyrimidin-4-yl)-6-methylpyridin-3-yl)-6-oxo-5-(trifluoromethyl)-1,6-dihydropyridine-3-carboxamide]		23.2 nM	
CCOc1ncc(-c2cc(NC(=O)c3ccnc(C(F)(F)F)c3)cnc2C)cc1N1CCOCC1 [Example 246, N-(6′-ethoxy-2-methyl-5′-morpholino-[3,3′-bipyridin]-5-yl)-2-(trifluoromethyl)isonicotinamide]			IC50 (Table 2, 3 hours reaction): 1.2 nM
CCNc1nc(-c2cc(NC(=O)c3ccnc(C(C)C)c3)ccc2C)cc(N2CCOCC2)n1 [Example 700, N-(3-(2-(ethylamino)-6-morpholinopyrimidin-4-yl)-4-methylphenyl)-2-isopropylisonicotinamide]		1.2 nM	
CCOc1nnc(-c2cc(NC(=O)c3cccc(C(F)F)c3)ccc2C)cc1N1CCOCC1 [Example 561, 3-(difluoromethyl)-N-(3-(6-ethoxy-5-morpholinopyridazin-3-yl)-4-methylphenyl)benzamide]		0.3 nM	
Cc1ncc(NC(=O)c2cccc(C(F)(F)F)c2)cc1-c1cc(N2CCOCC2)c(S(C)(=O)=O)nn1 [Example 919, N-(6-methyl-5-(6-(methylsulfonyl)-5-morpholinopyridazin-3-yl)pyridin-3-yl)-3-(trifluoromethyl)benzamide]	4.11 nM		
